# Data reported in US11090304B2 (Amgen Inc., priority 2018, dated 2021).
# pIC50: −log10 of the molar value. Like-named read-outs stand apart in the source and are kept apart here.
# Tests used:
# [1] = test system: Phosphorylation of ERK1/2 in A549 cells; assay: Phospho-ERK1/2 MSD assay in A549 cells; format: cell-based; conditions: Homo sapiens
# Method in brief: (§1)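 IC50 comes from a 4-parameter logistic fit of MSD phospho-ERK1/2 signal in lysates. Before lysis, MIA PaCa-2 or A549 cells were exposed to titrated compound for 2 or 4 h at 37 °C, followed by a 10 min 10 ng/mL EGF stimulus.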
# [2] = test system: Phosphorylation of ERK1/2 in MIA PaCa-2 cells; assay: Phospho-ERK1/2 MSD assay in MIA PaCa-2 cells; format: cell-based; conditions: Homo sapiens
# Method in brief: as §1
# [3] = biological target: GDP-bound KRAS protein (aa 1-169), containing both G12C and C118A amino acid substitutions (Homo sapiens, UniProt P01116, C118A/G12C); assay: Coupled nucleotide exchange assay (SOS-mediated, AlphaScreen); format: biochemical; conditions: for Coupled exchange IC50 (5 min): 5 min compound pre-incubation; for Coupled exchange IC50 (2 h): 2 h compound pre-incubation
# Sequence of GDP-bound KRAS protein (aa 1-169), containing both G12C and C118A amino acid substitutions (P01116 1-169 isoform P01116-2 G12C/C118A): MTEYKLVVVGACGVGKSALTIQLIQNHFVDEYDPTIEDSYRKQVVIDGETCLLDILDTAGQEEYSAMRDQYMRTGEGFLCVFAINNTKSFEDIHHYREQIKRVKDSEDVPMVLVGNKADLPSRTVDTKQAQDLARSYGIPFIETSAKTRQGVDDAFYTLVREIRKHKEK
# [4] = A549, 2 h, read-out: p-ERK IC50 (2 h; A549), 2 h compound treatment
# [5] = MIA PaCa-2, 2 h, read-out: p-ERK IC50 (2 h; MIA PaCa-2), 2 h compound treatment
# [6] = A549, 4 h, read-out: p-ERK IC50 (4 h; A549), 4 h compound treatment
# [7] = MIA PaCa-2, 4 h, read-out: p-ERK IC50 (4 h; MIA PaCa-2), 4 h compound treatment
SMILES,"pIC50 [1, 4]","pIC50 [2, 5]",Coupled exchange IC50 (5 min) [3],"pIC50 [1, 6]","pIC50 [2, 7]",Coupled exchange IC50 (2 h) [3]
"C=CC(=O)N1CCN(c2nc(=O)n(CC(C)(C)C(F)(F)F)c3nc(-c4c(C)ccc5[nH]ncc45)c(Cl)cc23)[C@@H](C)C1 [Example 60-34, 6-chloro-7-(5-methyl-1H-indazol-4-yl)-4-((2S)-2-methyl-4-(2-propenoyl)-1-piperazinyl)-1-(3,3,3-trifluoro-2,2-dimethylpropyl)pyrido[2,3-d]pyrimidin-2(1H)-one]",≤ 5.00,6.29,0.478 | nda μM,,,
"C=CC(=O)N1CCN(c2nc(=O)n(-c3ccccc3C(C)C)c3nc(Cl)c(Cl)cc23)[C@@H](C)C1 [Example 61-1, 6,7-Dichloro-4-((2S)-2-methyl-4-(2-propenoyl)-1-piperazinyl)-1-(2-(2-propanyl)phenyl)pyrido[2,3-d]pyrimidin-2(1H)-one]",≤ 4.00,5.61,,≤ 4.95,6.00,nda | 0.776 μM
"C=CC(=O)N1CCN(c2nc(=O)n(-c3ccncc3C3CC3)c3cc(-c4c(O)cccc4F)c(Cl)cc23)[C@@H](C)C1 [Example 62-3, 6-chloro-1-(3 cyclopropyl-4-pyridinyl)-7-(2-fluoro-6-hydroxyphenyl)-4-((2S)-2-methyl-4-(2-propenoyl)-1-piperazinyl)-2(1H)-quinazolinone]",≤ 5.00,6.07,0.147 | nda μM,,,
"C=CC(=O)N1CCN(c2nc(=O)n(-c3ccccc3C(C)C)c3nc(N4CCC4)c(Cl)cc23)[C@@H](C)C1 [Example 69-2, 7-(1-azetidinyl)-6-chloro-4-((2S)-2-methyl-4-(2-propenoyl)-1-piperazinyl)-1-(2-(2-propanyl)phenyl)pyrido[2,3-d]pyrimidin-2(1H)-one]",≤ 4.48,5.88,,,,nda | 0.511 μM
"C=CC(=O)N1CCN(c2nc(=O)n(-c3nccn3C(C)C)c3cc(-c4ccccc4F)c(Cl)cc23)[C@@H](C)C1 [Example 91, 6-Chloro-7-(2-fluorophenyl)-4-((2S)-2-methyl-4-(2-propenoyl)-1-piperazinyl)-1-(1-(2-propanyl)-1H-imidazol-2-yl)-2(1H)-quinazolinone]",≤ 5.00,6.51,0.2 | nda μM,,,
"CC(C)c1ccccc1-n1c(=O)nc(N2CCN(C(=O)/C=C/CN(C)C)CC2)c2cc(Cl)c(-c3c(O)cccc3F)cc21 [Example 92, 6-Chloro-4-(4-((2E)-4-(dimethylamino)-2-butenoyl)-1-piperazinyl)-7-(2-fluoro-6-hydroxyphenyl)-1-(2-(2-propanyl)phenyl)-2(1H)-quinazolinone]",,,,3.97,5.81,nda | 0.123 μM
"C=CC(=O)N1CCN(c2nc(=O)n(-c3c(CC)cccc3CC)c3nc(C4CC4)c(Cl)cc23)[C@@H](C)C1 [Example 94, 6-Chloro-7-cyclopropyl-1-(2,6-diethylphenyl)-4-((2S)-2-methyl-4-(2-propenoyl)-1-piperazinyl)pyrido[2,3-d]pyrimidin-2(1H)-one]",≤ 5.00,5.82,0.781 µM,,,0.112 µM
"C=CC(=O)N1CCN(c2nc(=O)n(-c3ccc(OCCN=[N+]=[N-])cc3C(C)C)c3nc(N4CCCCC4)c(Cl)cc23)[C@@H](C)C1 [Example 117, 1-(4-(2-Azidoethoxy)-2-(2-propanyl)phenyl)-6-chloro-4-((2S)-2-methyl-4-(2-propenoyl)-1-piperazinyl)-7-(1-piperidinyl)pyrido[2,3-d]pyrimidin-2(1H)-one]",≤ 5.00,5.31,,,,nda | 0.916 μM
